Experiment [1] deals with BT-474 cells. Kind of experiment: TUNEL assay, BT-474. The following applies: 4-OH-Tamoxifen 1 μM, 24 hours. In kind it is cell-based, human. As to the method: (§1) Cell Culture. T-47D cells obtained from ATCC were grown in RPMI 1640 (phenol red free), supplemented with 10% FBS (GIBCO BRL). BT-474 cells were grown in RPMI 1640 medium (phenol red free) supplemented with 10% FBS and ATCC recommended supplements. MCF-7 cells were grown in DMEM medium (phenol red free), supplemented with 10% FBS. The cells were grown at 37° C. in a humid atmosphere in the presence of 5% CO2. The MDA-MB-134 cells were grown in Leibovitz's L-15 medium supplemented with 20% FBS and grown in CO2 free atmosphere. The breast cancer cells were trypsinized (0.02% Trypsin—EDTA) and grown in their respective media (phenol red free) supplemented with 10% CSS (Charcoal stripped serum) for a week. Subsequently the cells were trypsinized again and plated onto an 8 chambered slide system (Lab Tek II) at a confluence of 60–70% per chamber. The next day treatments were performed on the breast cancer cells using their respective media(phenol red free), supplemented with 1% CSS. The MDA-MB-134 VI cells were grown in phenol red containing medium, but with the same serum conditions as the other breast cancer cells.
(§2) Terminal deoxynucleotidly transferase mediated dUTP nick end labeling (TUNEL) assay. Nicks of the fragmented DNA are labeled at their 3-OH ends. The fluorescein-labeled dUTP is incorporated at the 3-OH ends by using the enzyme terminal deoxynucleotidyl transferase. After the assigned period of treatment the chambers were dismantled as per the manufacturer's instructions and the TUNEL assay (Apoptosis detection system, Fluorescein- Promega) was performed as per the manufacturer's instructions. The slide was examined under a FITC filter using an Olympus IX 70 microscope system.

Experiment [2] deals with MCF-7 cells. Kind of experiment: TUNEL assay, MCF-7. In kind it is cell-based, human. The following applies: 4-OH-Tamoxifen 1 μM, 24 hours. As to the method: as §1
Terminal deoxynucleotidly transferase mediated dUTP nick end labeling (TUNEL) assay. Nicks of the fragmented DNA are labeled at their 3-OH ends. The fluorescein-labeled dUTP is incorporated at the 3-OH ends by using the enzyme terminal deoxynucleotidyl transferase. […]

For experiment [3], the system named is T-47D human breast cancer cells. The experiment can be described thus: TUNEL assay, T-47D. In kind it is cell-based. As to the method: as §1, §2
Experiment [4] relates to T47-D human breast cancer cells. Kind of experiment: 96 well cell proliferation assay with conditioned media (MTS-PMS). In kind it is cell-based. As to the method: HPRLG129R Conditioned Media. The assay conditions were modified from that described by Ginsburg and Vonderharr (1995, Cancer Res. 55:2591–2595). T47-D cells were trypsinized and passed into 96 well plates in RPMI-1640 media containing 1% DCC-FCS in a volume of 100 μl/well. The optimal cell number/well for each cell line was pre-determined after titration assay. For T47-D cells, 15,000 cells/well were plated. The cells were allowed to settle and adhere overnight (12–18 hours) and subsequently various concentrations of either hPRL, hRPL-G129R, E2 or 4-OH-Tamoxifen in a total volume of 100 μl of culture media were added. Purified hPRL (kindly provided by Dr. Parlow, National Hormone & Pituitary Program, NIH) was used as a positive control for hPRL produced from stable L cells. Cells were incubated for an additional 96 hours at 37° C. in a humidified 5% CO2 incubator. After incubation, MTS-PMS solution (Cell Titer 96 Aqueous kit, Promega Corp.) was added to each well, following the manufacturer's instructions. Plates were read at 490 nm using a BIO-RAD benchmark microplate reader. The experiments were carried out in triplicates and repeated three to six times for each cell line.

Experiment [5] has as its system T47D human breast cancer cells. The experiment can be described thus: Cell proliferation assay, cell counting. The experiment is classed as cell-based. Conditions: for proliferation of T47D cells relative to untreated control cultures: FIGS. 5A-B; for shape of dose response curve, T-47D cell number: FIG. 4. As to the method: Cell proliferation assays. hPRLA was tested for its ability to inhibit breast cancer cell proliferation in tissue culture. The human breast cancer cells were grown in corresponding culture media according to ATCC recommendations. Cells were maintained at 37° C. in a humidified atmosphere of 5% CO2 in air. The assay conditions were essentially as described by Ginsburg and Vonderharr (1995, Cancer Res. 55:2591–2595). For individual growth experiments, cells were plated in 12 well culture plates at a density of approximately 2×10^4 /ml, 1 ml/ well. Cells were then allowed to attach for one day (T-47D, MCF-7, HTB19, and HTB20 cells, except for HTB 123, which is a suspension cells), then the overlying media was removed and changed to serum-free conditions with media containing ITS^+ (insulin-transferring-selenium-BSA-linoleic acid culture supplement; Collaborative Research Bedford, Mass.). Varying concentrations of hPRL alone or in combination with hPRLA were introduced. After an additional three days in culture, cells were harvested after brief trypsinization and counted in a cell counter.

Experiment [6] deals with hGH receptor on T-47D and HTB123 cells. Kind of experiment: Competitive radioreceptor binding assay. Also noted: species or system human. The following applies: T-47D and HTB123 compared to leukemia, lymphoma and retinoblastoma cells.
Experiment [7] deals with tyrosine phosphorylation of STAT protein. Conditions: literature; cited from earlier work.
Experiment [8] relates to T47D human breast cancer cells. Kind of experiment: Mixed cell culture assay with transfected L cells, T47D. In kind it is cell-based. The following applies: co-culture with transfected L cells, 24 h to five days. An excerpt: For certain experiments, a mixed cell culture assay was used, diagramatically represented in FIG. 6. In this assay, breast cancer cells were co-cultured with expressor cells which had been transfected with nucleic acid encoding PRL or a PRL variant and expressing those recombinant proteins. By varying the number of expressor cells, the amount of PRL or PRL variant present in the mixed cell culture was increased or decreased. […] In certain wells, which served as a control, no expresser cells were added. Then, increasing numbers of expresser cells (transfected L cells expressing either HPRL (L-PRL) or hPRLA (L-PRLA)) were added to breast cancer cell-containing wells to create mixed cultures. The same numbers of expressor cells were cultured in parallel (without T47D cells) to serve as controls. After culturing under standard conditions for a period of time, the number of cells present in the wells was counted, and the number of L cells in the corresponding control culture was subtracted. The resulting number could then be compared to the number of T47D cells in the T47D control culture to evaluate the effects of the recombinant product on breast cancer cell proliferation.

Experiment [9] deals with tyrosine phosphorylation of STAT5 protein in T-47D human breast cancer cells. The experiment can be described thus: hPRL induction of tyrosine phosphorylation of STAT5 protein (Example 8). The experiment is classed as cell-based. Conditions: T-47D cells, 5 nM of hormone alone, Western blot FIG. 3. An excerpt:
Assay of hPRL induction of tyrosine phosphorylation of STAT5 protein. […] Tyrosyl phosphorylation of STAT 5 is a receptor mediated event and is thought to be an important step in ligand-induced signal transduction (Wakao et al., 1994, EMBO J. 13: 2182–2191; Kazansky et al., 1995, Mol. Endocrinol. 9:1598–1609; Waxman et al., 1995, J. Biol. Chem. 270:13262–13270). This assay was used to evaluate the ability of hPRL and hPRLA to inhibit induction of STAT 5 phosphorylation by wild type PRL.
Briefly, human breast cancer cells were plated in 12-well plates. After pre-incubation in serum-free DMEM for 2–3 hours, the cells were exposed to various concentration of hPRL and hPRLA in serum-free DMEM. The cells were incubated for 15 min at 37° C., washed once with PBS, and lysed in 300 μl lysis buffer (50 mM Tris-HCl, pH 6.8, 1% SDS, 1% β-mecaptoethanol, 0.1M DTT, 5% Sucrose, 100 uM Sodium Orthovanadate, and 0.6% bromphenol blue). Thirty microliters of cell lysates were subjected to 4–12.5% SDS-PAGE and immunoblot analysis using horse radish peroxidase (HRP)-conjugated anti-phosphotyrosine antibody PY20 and ECL reagent kit (Amersham, Ill.). Blots were then exposed to X-ray films and developed using standard procedures (Kodak, Rochester, N.Y.). This assay has been described in Chen et al., 1994, J. Biol. Chem. 269: 15892–15897; Chen et al., 1995, Endocrinol. 136:660–667; Wang et al., 1994, Proc. Natl. Acad. Sci. U.S.A. 91:1391–1395; Chen et al., 1995, Mol. Endocrinol. 9(3):292–302; Harding et al., 1996, J. Biol. Chem. 271(12):6708–6712.

Regarding `CC/C(=C(\c1ccc(O)cc1)c1ccc(OCCN(C)C)cc1)c1ccccc1` [4-OH-Tamoxifen, reference compound], the induction of apoptosis entry is “did not induce apoptosis” in [1]; “did not induce apoptosis” in [2]; “did not induce apoptosis” in experiment [3] (4-OH-Tamoxifen 1 μM, 24 hours). In addition, the “inhibition of cell proliferation” value in experiment [4] (100 nM 4-OH-Tamoxifen alone) is recorded as 15%. In experiment [4] (4-OH-Tamoxifen at 500 nM, T47-D), the “maximum inhibition by a single dose” value was “approximately 15 % of control”.
In the case of `CC/C(=C(\c1ccccc1)c1ccc(OCCN(C)C)cc1)c1ccccc1` [tamoxifen, reference compound], the “proliferation of T47D cells relative to untreated control cultures” value in [5] is reported as “comparable inhibitory effect”.
Take hGH: human growth hormone: the “hGH receptor specific binding” value in experiment [6] is “minimum”. Besides, the “shape of dose response curve, T-47D cell number” value in experiment [5] is on record as “bell shaped dose response curves”.
As for “hGH-G120R: GH antagonist, variant of human GH with glycine at position 120 substituted with arginine”, the “effect on GH induction of STAT protein phosphorylation” value in experiment [7] is reported as “inhibit GH induction of STAT protein phosphorylation in a dose dependent manner”.
For estrogen [reference compound], in [5], the “proliferation of T47D cells relative to untreated control cultures” value is “increased proliferation”.

B1: hPRL: human prolactin, recombinant from transfected mouse L cells or purified from NIH (protein)
chain: LPICPGGAARCQVTLRDLFDRAVVLSHYIHNLSSEMFSEFDKRYTHGRGFITKAINSCHTSSLATPEDKEQAQQMNQKDFLSLIVSILRSWNEPLYHLVTEVRGMQEAPEAILSKAVEIEEQTKRLLEGMELIVSQVHPETKENEIYPVWSGLPSLQMADEESRLSAYYNLLHCLRRDSHKIDNYLKLLKCRIIHNNNC
In the case of B1, the “reversal of G129R-induced DNA fragmentation” value in [3] (4:1 ratio (500 ng/ml hPRL, 125 ng/ml hPRL-G129R)) was “competitively reverse the DNA fragmentation”. Besides, the “maximum response in the presence of E2 compared to hPRL alone” value in experiment [4] (hPRL 100 ng/ml with 10 nM E2) is on record as “more than tripled”. Further, the “maximum stimulation over basal levels” value in [4] (hPRL 250 ng/ml, single dose, four-day incubation) is listed as “approximately 20%”. Moreover, the “effect on T47-D proliferation, dose response” value in [4] (single dose, four-day incubation) is on record as “stimulated T47-D proliferation in a dose dependent manner”. In experiment [5], the “shape of dose response curve, T-47D cell number” value is “bell shaped dose response curves” and the “proliferation of T47D cells relative to untreated control cultures” value is “increased proliferation”. Besides, the “T47D proliferation relative to untreated T47D cell cultures” value in experiment [8] is “increase in T47D proliferation”. Besides, the “induction of phosphorylation of STAT5 proteins” value in [9] is given as “induced”.

The values are drawn from US7115556B2, “Use of anti-prolactin agents to treat proliferative conditions” (Greenville Hospital System, priority 1998, dated 2006).
